Patent publication US20130065792A1, “INDUCIBLE EXPRESSION OF SGLT5, METHODS AND KITS USING THE SAME” (BOEHRINGER INGELHEIM INTERNATIONAL GMBH, priority 2011, published 2013)
Read-outs that look alike come from different tables or passages of the source.

Molecular target: T1, SGLT5 (Homo sapiens, UniProt A0PJK1)
T1 construct: expressed in transfected cells; host or cells: T-Rex 293 cells (Invitrogen), stably transfected with pT-Rex-Dest30-hSGLT5; expression induced with tetracycline; deposited clone DSM ACC3096
T1 sequence (A0PJK1 1-596): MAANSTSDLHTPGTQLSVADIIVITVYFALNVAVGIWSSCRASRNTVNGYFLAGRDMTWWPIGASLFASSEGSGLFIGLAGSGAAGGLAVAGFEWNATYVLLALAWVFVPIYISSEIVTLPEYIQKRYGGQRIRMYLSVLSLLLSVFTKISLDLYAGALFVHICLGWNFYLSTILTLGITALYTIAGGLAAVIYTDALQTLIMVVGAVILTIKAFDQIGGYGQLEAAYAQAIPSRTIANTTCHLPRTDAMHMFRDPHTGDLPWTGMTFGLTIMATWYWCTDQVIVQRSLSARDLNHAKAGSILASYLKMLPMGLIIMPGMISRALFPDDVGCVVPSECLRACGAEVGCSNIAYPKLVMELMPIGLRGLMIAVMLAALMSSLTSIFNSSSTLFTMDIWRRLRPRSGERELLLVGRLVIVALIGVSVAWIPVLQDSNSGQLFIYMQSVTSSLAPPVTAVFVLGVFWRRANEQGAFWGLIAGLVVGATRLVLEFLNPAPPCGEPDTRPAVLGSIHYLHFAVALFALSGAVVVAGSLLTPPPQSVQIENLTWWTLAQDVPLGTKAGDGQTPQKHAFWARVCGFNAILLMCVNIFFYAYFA
Assay: [14C]-monosaccharide uptake inhibition assay, [14C]-mannose as substrate, stable cell lines overexpressing human SGLT-5
Assay type: cell-based
Conditions: for IC50 / pIC50 ± SEM for inhibition of hSGLT-5: [14C]-mannose as substrate
Procedure: [^14C]-monosaccharide uptake inhibition experiments: Stable cell lines overexpressing human SGLT-5 were used for the sodium-dependent monosaccharide transport inhibition assay. […] The uptake reaction was started by the addition of 0.6 μCi [^14C]-labelled monosaccharide i.e. [^14C]-labeled alpha-methyl glucopyranoside (AMG), glucose, fructose, mannose or myo-inositol, in 0.1 mM AMG (or the respective non-radioactive monosaccharide). After incubation for 60 minutes at 37° C., the cells were washed three times with 300 μl PBS (Cambrex, Verviers, Belgium) and then lysed in 0.1 N NaOH with intermittent shaking for 5 minutes. The lysate was mixed with 200 μl MicroScint 40 and shaken for 15 minutes and counted for radioactivity in the TopCount NXT (Canberra Packard, Schwadorf, Austria). The cells were pre-incubated in pre-treatment buffer (uptake buffer containing choline chloride instead of sodium chloride) for 25 minutes prior to addition of uptake buffer. A dose-response curve was fitted to an empirical four-parameter model using XL Fit (IDBS, Guildford, UK) to determine the inhibitor concentration at half-maximal response (IC50). Human SGLT-5 was identified to be a mannose transporter and the inhibition of hSGLT-5 was assessed by a newly established [^14C]-mannose uptake assay.

[1] = 60 minutes at 37° C., at least three independent experiments, read-out: Mean IC50 for inhibition of hSGLT-5

OC[C@H]1O[C@@H](c2ccc(F)c(Cc3cc4ccccc4s3)c2)[C@H](O)[C@@H](O)[C@@H]1O [ASP-1941] was tested. Which IC50 [1] did it give?
The IC50 was 0.74 µM.

For Cc1ccc([C@@H]2O[C@H](CO)[C@@H](O)[C@H](O)[C@H]2O)cc1Cc1ccc(-c2ccc(F)cc2)s1 [Canagliflozin], which IC50 [1] is on record?
The IC50 was 1.7 µM.

What about the pIC50 ± SEM for inhibition of hSGLT-5 (given with negative sign) of the same compound?
Its pIC50 ± SEM for inhibition of hSGLT-5 is 5.77 ± 0.12.

For OC[C@H]1O[C@@H](c2ccc(Cl)c(Cc3ccc(O[C@H]4CCOC4)cc3)c2)[C@H](O)[C@@H](O)[C@@H]1O [Compound A, D-glucitol, 1,5-anhydro-1-C-[4-chloro-3-[[4-[[(3S)-tetrahydro-3-furanyl]oxy]phenyl]methyl]phenyl]-, (1S)-], which IC50 [1] is on record?
The IC50 was 1.1 µM.

And the IC50 (given with negative sign, read-out: pIC50 ± SEM for inhibition of hSGLT-5 (converted))?
The IC50 was 1.05 µM.

What does the source list for Cc1cc(O)c(C(=O)CCc2ccc3occc3c2)c(O[C@@H]2O[C@H](CO)[C@@H](O)[C@H](O)[C@H]2O)c1 [Compound T1095A]?
IC50 [1]: 1.1 µM; pIC50 ± SEM for inhibition of hSGLT-5 (given with negative sign): 5.97 ± 0.19

For CCOc1ccc(Cc2cc([C@@H]3O[C@H](CO)[C@@H](O)[C@H](O)[C@H]3O)ccc2Cl)cc1 [Dapagliflozin], which IC50 [1] is on record?
Its IC50 is 0.82 µM.

How did the IC50 [1] turn out when O=C(CCc1ccc(O)cc1)c1c(O)cc(O)cc1O[C@@H]1O[C@H](CO)[C@@H](O)[C@H](O)[C@H]1O [Phlorizin] was run?
The IC50 was 1.5 µM.

Which results are given for Cc1c(Cc2ccc(OC(C)C)cc2)c(O[C@@H]2O[C@H](CO)[C@@H](O)[C@H](O)[C@H]2O)nn1C(C)C [Remogliflozin]?
selectivity over SGLT-2 (SGLT-5 versus SGLT-2): < 15 fold; IC50 [1]: 0.19 µM

COc1ccc(Cc2ccccc2O[C@@H]2O[C@H](CO)[C@@H](O)[C@H](O)[C@H]2O)cc1 [Sergliflozin] was tested. Which IC50 [1] did it give?
Its IC50 is 1.1 µM.

What about the pIC50 ± SEM for inhibition of hSGLT-5 (given with negative sign) of the same compound?
Its pIC50 ± SEM for inhibition of hSGLT-5 is 5.95.
